Results published in patent publication US6737383B1, “Herbicidal oxadiazolidines” (priority 1999, dated 2004).

Experiments:
bedstraw = experiment: Test B pre/postemergence bedstraw; type: in vivo, Galium aparine
How it was run: (§1)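 Response is a visual 0-to-10 score relative to untreated plants, where 0 means no effect and 10 means complete control, taken twelve to sixteen days after application. Treatments went onto soil at planting and onto foliage of 1- to 4-leaf plants, using a surfactant-containing non-phytotoxic solvent.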

surinam grass = experiment: Test B pre/postemergence surinam grass; type: in vivo, Brachiaria decumbens
How it was run: as §1

cocklebur = experiment: Test B pre/postemergence cocklebur; type: in vivo, Xanthium strumarium
How it was run: as §1

corn = experiment: Test B pre/postemergence corn; type: in vivo, Zea mays
How it was run: as §1

giant foxtail = experiment: Test B pre/postemergence giant foxtail; type: in vivo, Setaria faberii
How it was run: as §1

pigweed = experiment: Test B pre/postemergence pigweed; type: in vivo, Amaranthus retroflexus
How it was run: as §1

rape = experiment: Test B pre/postemergence rape; type: in vivo, Brassica napus
How it was run: as §1

soybean = experiment: Test B pre/postemergence soybean; type: in vivo, Glycine max
How it was run: as §1

sugar beet = experiment: Test B pre/postemergence sugar beet; type: in vivo, Beta vulgaris
How it was run: as §1

velvetleaf = experiment: Test B pre/postemergence velvetleaf; type: in vivo, Abutilon theophrasti
How it was run: as §1

wheat = experiment: Test B pre/postemergence wheat; type: in vivo, Triticum aestivum
How it was run: as §1

wild oat = experiment: Test B pre/postemergence wild oat; type: in vivo, Avena fatua
How it was run: as §1

purple nutsedge = experiment: Test B pre/postemergence purple nutsedge; type: in vivo, Cyperus rotundus
How it was run: as §1

rice = experiment: Test B flood test rice; type: in vivo, Oryza sativa
How it was run: (§2)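 Each value is a visual injury score relative to controls, with 10 meaning complete control and 0 no effect. Evaluation took place twelve to sixteen days after the 2-leaf-stage plants were treated and kept in the greenhouse.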

smallflower flatsedge = experiment: Test B flood test smallflower flatsedge; type: in vivo, Cyperus difformis
How it was run: as §2

duck salad = experiment: Test B flood test duck salad; type: in vivo, Heteranthera limosa
How it was run: as §2

[1] = Postemergence, Rate 62 g/ha, scale 0 to 10, 0 is no effect, 10 is complete control
[2] = Preemergence, Rate 62 g/ha, scale 0 to 10, 0 is no effect, 10 is complete control
[3] = Preemergence, Rate 125 g/ha, scale 0 to 10 (0 no effect, 10 complete control)
[4] = Preemergence, Rate 250 g/ha, scale of 0 to 10 where 0 is no effect and 10 is complete control
[5] = Preemergence, Rate 500 g/ha, scale 0 (no effect) to 10 (complete control)
[6] = Postemergence, Rate 250 g/ha, scale 0 to 10, 0 no effect, 10 complete control
[7] = Rate 125 g/ha, Postemergence, scale 0 to 10, 0 no effect, 10 complete control
[8] = Rate 500 g/ha, Postemergence, 0 to 10 scale (0 no effect, 10 complete control)
[9] = Rate 125 g/ha, Postemergence section (flood test species), scale 0 to 10, 0 no effect, 10 complete control
[10] = Rate 500 g/ha, Postemergence section of Table B, 0 to 10 scale (0 no effect, 10 complete control)
[11] = flood test, listed under Postemergence, Rate 250 g/ha, scale 0 to 10, 0 no effect, 10 complete control

SMILES: Cc1ccccc1-n1c(=O)on(C(=O)N(c2ccc(Cl)cc2)C(C)C)c1=O [Compound 41]
- Bedstraw plant response rating (bedstraw; [1]): 0
- Plant response rating, Bedstraw (bedstraw; [2]): 0
- Plant response rating, Bedstraw (bedstraw; [3]): 0
- Plant response rating, Bedstraw (bedstraw; [4]): 0
- Bedstraw plant response rating (bedstraw; [5]): 0
- B. signalgrass plant response rating (surinam grass; [1]): 0
- B. signalgrass plant response rating (surinam grass; [6]): 0
- Plant response rating, B. signalgrass (surinam grass; [2]): 0
- Plant response rating, B. signalgrass (surinam grass; [3]): 0
- Plant response rating, B. signalgrass (surinam grass; [4]): 4
- B. signalgrass plant response rating (surinam grass; [5]): 7
- B. signalgrass plant response rating (surinam grass; [7]): 0
- B. signalgrass plant response rating (surinam grass; [8]): 0
- Cocklebur plant response rating (cocklebur; [1]): 0
- Cocklebur plant response rating (cocklebur; [6]): 1
- Plant response rating, Cocklebur (cocklebur; [2]): 0
- Plant response rating, Cocklebur (cocklebur; [3]): 0
- Plant response rating, Cocklebur (cocklebur; [4]): 0
- Cocklebur plant response rating (cocklebur; [5]): 0
- Cocklebur plant response rating (cocklebur; [7]): 0
- Cocklebur plant response rating (cocklebur; [8]): 3
- Corn plant response rating (corn; [1]): 0
- Corn plant response rating (corn; [6]): 0
- Plant response rating, Corn (corn; [2]): 0
- Plant response rating, Corn (corn; [3]): 0
- Plant response rating, Corn (corn; [4]): 0
- Corn plant response rating (corn; [5]): 0
- Corn plant response rating (corn; [7]): 0
- Corn plant response rating (corn; [8]): 0
- Giant foxtail plant response rating (giant foxtail; [1]): 0
- Giant foxtail plant response rating (giant foxtail; [6]): 1
- Plant response rating, Giant foxtail (giant foxtail; [2]): 4
- Plant response rating, Giant foxtail (giant foxtail; [3]): 9
- Plant response rating, Giant foxtail (giant foxtail; [4]): 10
- Giant foxtail plant response rating (giant foxtail; [5]): 10
- Giant foxtail plant response rating (giant foxtail; [7]): 0
- Giant foxtail plant response rating (giant foxtail; [8]): 1
- Redroot pigweed plant response rating (pigweed; [1]): 0
- Redroot pigweed plant response rating (pigweed; [6]): 3
- Plant response rating, Redroot pigweed (pigweed; [2]): 0
- Plant response rating, Redroot pigweed (pigweed; [3]): 1
- Plant response rating, Redroot pigweed (pigweed; [4]): 1
- Redroot pigweed plant response rating (pigweed; [5]): 7
- Redroot pigweed plant response rating (pigweed; [7]): 0
- Redroot pigweed plant response rating (pigweed; [8]): 5
- Rape plant response rating (rape; [1]): 0
- Rape plant response rating (rape; [6]): 0
- Plant response rating, Rape (rape; [2]): 0
- Plant response rating, Rape (rape; [3]): 0
- Plant response rating, Rape (rape; [4]): 0
- Rape plant response rating (rape; [5]): 0
- Rape plant response rating (rape; [7]): 0
- Rape plant response rating (rape; [8]): 0
- Soybean plant response rating (soybean; [1]): 3
- Soybean plant response rating (soybean; [6]): 4
- Plant response rating, Soybean (soybean; [2]): 0
- Plant response rating, Soybean (soybean; [3]): 0
- Plant response rating, Soybean (soybean; [4]): 0
- Soybean plant response rating (soybean; [5]): 0
- Soybean plant response rating (soybean; [7]): 3
- Sugarbeets plant response rating (sugar beet; [1]): 0
- Sugarbeets plant response rating (sugar beet; [6]): 0
- Plant response rating, Sugarbeets (sugar beet; [2]): 0
- Plant response rating, Sugarbeets (sugar beet; [3]): 0
- Plant response rating, Sugarbeets (sugar beet; [4]): 0
- Sugarbeets plant response rating (sugar beet; [5]): 0
- Sugarbeets plant response rating (sugar beet; [7]): 0
- Velvetleaf plant response rating (velvetleaf; [1]): 0
- Velvetleaf plant response rating (velvetleaf; [6]): 0
- Plant response rating, Velvetleaf (velvetleaf; [2]): 0
- Plant response rating, Velvetleaf (velvetleaf; [3]): 0
- Plant response rating, Velvetleaf (velvetleaf; [4]): 0
- Velvetleaf plant response rating (velvetleaf; [5]): 0
- Velvetleaf plant response rating (velvetleaf; [7]): 0
- Wheat plant response rating (wheat; [1]): 0
- Wheat plant response rating (wheat; [6]): 0
- Plant response rating, Wheat (wheat; [2]): 0
- Plant response rating, Wheat (wheat; [3]): 0
- Plant response rating, Wheat (wheat; [4]): 0
- Wheat plant response rating (wheat; [5]): 0
- Wheat plant response rating (wheat; [7]): 0
- Wild oats plant response rating (wild oat; [1]): 0
- Wild oats plant response rating (wild oat; [6]): 0
- Plant response rating, Wild oats (wild oat; [3]): 0
- Plant response rating, Wild oats (wild oat; [4]): 0
- Wild oats plant response rating (wild oat; [5]): 4
- Wild oats plant response rating (wild oat; [7]): 0
- Nutsedge plant response rating (purple nutsedge; [1]): 0
- Nutsedge plant response rating (purple nutsedge; [6]): 0
- Plant response rating, Nutsedge (purple nutsedge; [2]): 0
- Plant response rating, Nutsedge (purple nutsedge; [3]): 0
- Plant response rating, Nutsedge (purple nutsedge; [4]): 0
- Nutsedge plant response rating (purple nutsedge; [5]): 0
- Nutsedge plant response rating (purple nutsedge; [7]): 0
- Nutsedge plant response rating (purple nutsedge; [8]): 0
- Rice plant response rating (rice; [1]): 0
- Rice plant response rating (rice; [9]): 0
- Rice plant response rating (rice; [10]): 0
- Rice plant response rating (rice; [11]): 0
- S. Flatsedge plant response rating (smallflower flatsedge; [1]): 0
- S. Flatsedge plant response rating (smallflower flatsedge; [9]): 0
- S. Flatsedge plant response rating (smallflower flatsedge; [11]): 0
- Ducksalad plant response rating (duck salad; [1]): 0
- Ducksalad plant response rating (duck salad; [9]): 0
- Ducksalad plant response rating (duck salad; [10]): 0
- Ducksalad plant response rating (duck salad; [11]): 0

SMILES: CC(C)Oc1cc(-n2c(=O)on(C(=O)N(c3ccc(F)cc3)C(C)C)c2=O)c(Cl)cc1Cl [Compound 43]
- Bedstraw plant response rating (bedstraw; [1]): 0
- Bedstraw plant response rating (bedstraw; [6]): 0
- Plant response rating, Bedstraw (bedstraw; [2]): 0
- Plant response rating, Bedstraw (bedstraw; [3]): 0
- Plant response rating, Bedstraw (bedstraw; [4]): 0
- Bedstraw plant response rating (bedstraw; [5]): 2
- Bedstraw plant response rating (bedstraw; [7]): 0
- Bedstraw plant response rating (bedstraw; [8]): 2
- B. signalgrass plant response rating (surinam grass; [1]): 0
- B. signalgrass plant response rating (surinam grass; [6]): 0
- Plant response rating, B. signalgrass (surinam grass; [2]): 0
- Plant response rating, B. signalgrass (surinam grass; [3]): 0
- Plant response rating, B. signalgrass (surinam grass; [4]): 0
- B. signalgrass plant response rating (surinam grass; [5]): 0
- B. signalgrass plant response rating (surinam grass; [7]): 0
- B. signalgrass plant response rating (surinam grass; [8]): 0
- Cocklebur plant response rating (cocklebur; [1]): 0
- Cocklebur plant response rating (cocklebur; [6]): 0
- Plant response rating, Cocklebur (cocklebur; [2]): 0
- Plant response rating, Cocklebur (cocklebur; [3]): 0
- Plant response rating, Cocklebur (cocklebur; [4]): 0
- Cocklebur plant response rating (cocklebur; [5]): 0
- Cocklebur plant response rating (cocklebur; [7]): 0
- Cocklebur plant response rating (cocklebur; [8]): 1
- Corn plant response rating (corn; [1]): 0
- Corn plant response rating (corn; [6]): 0
- Plant response rating, Corn (corn; [2]): 0
- Plant response rating, Corn (corn; [3]): 0
- Plant response rating, Corn (corn; [4]): 0
- Corn plant response rating (corn; [5]): 0
- Corn plant response rating (corn; [7]): 0
- Corn plant response rating (corn; [8]): 0
- Giant foxtail plant response rating (giant foxtail; [1]): 0
- Giant foxtail plant response rating (giant foxtail; [6]): 0
- Plant response rating, Giant foxtail (giant foxtail; [2]): 0
- Plant response rating, Giant foxtail (giant foxtail; [3]): 0
- Plant response rating, Giant foxtail (giant foxtail; [4]): 0
- Giant foxtail plant response rating (giant foxtail; [5]): 0
- Giant foxtail plant response rating (giant foxtail; [7]): 0
- Giant foxtail plant response rating (giant foxtail; [8]): 0
- Redroot pigweed plant response rating (pigweed; [1]): 1
- Plant response rating, Redroot pigweed (pigweed; [2]): 0
- Plant response rating, Redroot pigweed (pigweed; [3]): 0
- Plant response rating, Redroot pigweed (pigweed; [4]): 0
- Redroot pigweed plant response rating (pigweed; [5]): 4
- Redroot pigweed plant response rating (pigweed; [7]): 2
- Redroot pigweed plant response rating (pigweed; [8]): 6
- Rape plant response rating (rape; [1]): 0
- Rape plant response rating (rape; [6]): 0
- Plant response rating, Rape (rape; [2]): 0
- Plant response rating, Rape (rape; [3]): 0
- Plant response rating, Rape (rape; [4]): 0
- Rape plant response rating (rape; [5]): 0
- Rape plant response rating (rape; [7]): 0
- Soybean plant response rating (soybean; [1]): 2
- Soybean plant response rating (soybean; [6]): 3
- Plant response rating, Soybean (soybean; [2]): 0
- Plant response rating, Soybean (soybean; [3]): 0
- Plant response rating, Soybean (soybean; [4]): 0
- Soybean plant response rating (soybean; [5]): 0
- Soybean plant response rating (soybean; [7]): 3
- Sugarbeets plant response rating (sugar beet; [1]): 0
- Sugarbeets plant response rating (sugar beet; [6]): 1
- Plant response rating, Sugarbeets (sugar beet; [2]): 0
- Plant response rating, Sugarbeets (sugar beet; [3]): 0
- Plant response rating, Sugarbeets (sugar beet; [4]): 0
- Sugarbeets plant response rating (sugar beet; [5]): 0
- Sugarbeets plant response rating (sugar beet; [7]): 1
- Velvetleaf plant response rating (velvetleaf; [1]): 0
- Velvetleaf plant response rating (velvetleaf; [6]): 0
- Plant response rating, Velvetleaf (velvetleaf; [2]): 0
- Plant response rating, Velvetleaf (velvetleaf; [3]): 0
- Plant response rating, Velvetleaf (velvetleaf; [4]): 0
- Velvetleaf plant response rating (velvetleaf; [5]): 0
- Velvetleaf plant response rating (velvetleaf; [7]): 0
- Wheat plant response rating (wheat; [1]): 0
- Wheat plant response rating (wheat; [6]): 0
- Plant response rating, Wheat (wheat; [2]): 0
- Plant response rating, Wheat (wheat; [3]): 0
- Plant response rating, Wheat (wheat; [4]): 0
- Wheat plant response rating (wheat; [5]): 0
- Wheat plant response rating (wheat; [7]): 0
- Wild oats plant response rating (wild oat; [1]): 0
- Wild oats plant response rating (wild oat; [6]): 0
- Plant response rating, Wild oats (wild oat; [3]): 0
- Plant response rating, Wild oats (wild oat; [4]): 0
- Wild oats plant response rating (wild oat; [5]): 0
- Wild oats plant response rating (wild oat; [7]): 0
- Nutsedge plant response rating (purple nutsedge; [1]): 0
- Nutsedge plant response rating (purple nutsedge; [6]): 0
- Plant response rating, Nutsedge (purple nutsedge; [2]): 0
- Plant response rating, Nutsedge (purple nutsedge; [3]): 0
- Plant response rating, Nutsedge (purple nutsedge; [4]): 0
- Nutsedge plant response rating (purple nutsedge; [5]): 0
- Nutsedge plant response rating (purple nutsedge; [7]): 0
- Nutsedge plant response rating (purple nutsedge; [8]): 0
- Rice plant response rating (rice; [1]): 0
- Rice plant response rating (rice; [9]): 0
- Rice plant response rating (rice; [10]): 0
- Rice plant response rating (rice; [11]): 0
- S. Flatsedge plant response rating (smallflower flatsedge; [1]): 0
- S. Flatsedge plant response rating (smallflower flatsedge; [9]): 0
- S. Flatsedge plant response rating (smallflower flatsedge; [11]): 0
- Ducksalad plant response rating (duck salad; [1]): 0
- Ducksalad plant response rating (duck salad; [9]): 0
- Ducksalad plant response rating (duck salad; [10]): 0
- Ducksalad plant response rating (duck salad; [11]): 0
